From patent US10370339B2, “N-Methylbenzimidazoles as mIDH1 inhibitors” (BAYER PHARMA AKTIENGESELLSCHAFT, priority 2015, dated 2019)

The compounds below were run against IDH1 R132H enzyme (Homo sapiens (Human), UniProt O75874, R132H) (assay: Mutant IDH1 R132H biochemical assay). Details: NADPH consumption, luminescent readout; 1.5 nM enzyme, 1 μM NADPH, 250 μM α-KG, 30 minutes, 32° C.
Description: Mutant IDH1 R132H Biochemical Assay mIDH1 catalyzes the NADPH-dependent reduction of alpha-ketoglutarate (a-KG) to (2R)-2-hydroxyglutarate (2-HG). NADPH consumption was measured by luminescent readout.
The biochemical reactions were performed at 32° C. in 384-well plates using a reaction volume of 41 μL and the following assay buffer conditions: 50 mM Tris pH 7.5, 100 mM NaCl, 20 mM MgCl2, 0.05% BSA, 0.01% Brij, 1 μM NADPH, and 250 μM α-KG. The IDH1 R132H enzyme was used in a final concentration of 1.5 nM. Test compounds were used in a concentration range between 0.002 and 10 μM. The final DMSO concentration was 2.4%.
The reaction was incubated for 30 minutes, then 40 μL of detection mix (0.75 μg/ml Luciferase, 0.02 U/ml Oxidoreductase, 4 μg/mL FMN, 2 μL/ml decanal/ethanol, 50 mM Tris pH 7.5, 0.5% Glycerin, 0.01% Tween-20, 0.05% BSA) was added. Luminescence was measured on a luminescent reader (10 seconds measuring time, 1 second integration period, 30% sensitivity). The decrease in luminescence is proportional to mIDH1 activity. IC50 values are determined by interpolation from plots of relative luminescence versus inhibitor concentration.

IDH1 R132H enzyme, sequence (O75874 whole entry R132H): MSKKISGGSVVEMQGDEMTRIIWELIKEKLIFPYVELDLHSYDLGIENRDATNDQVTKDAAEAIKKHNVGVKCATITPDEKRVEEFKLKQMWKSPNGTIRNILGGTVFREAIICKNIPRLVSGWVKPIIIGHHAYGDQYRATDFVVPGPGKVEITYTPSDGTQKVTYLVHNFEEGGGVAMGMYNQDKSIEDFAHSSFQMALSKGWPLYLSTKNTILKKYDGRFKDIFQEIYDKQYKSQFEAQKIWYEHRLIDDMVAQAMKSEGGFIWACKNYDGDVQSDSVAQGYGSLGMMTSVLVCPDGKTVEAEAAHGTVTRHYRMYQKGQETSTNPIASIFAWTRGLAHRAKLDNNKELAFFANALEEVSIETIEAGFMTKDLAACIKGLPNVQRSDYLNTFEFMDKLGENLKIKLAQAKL

SMILES | IC50 [nM]
COC(=O)c1ccc2c(c1)nc(Nc1ccc(OC(F)(F)F)cc1)n2[C@@H]1C[C@H](C)CC[C@H]1C(C)C [Example 2-1, methyl 1-[(1R,2S,5R)-2-isopropyl-5-methylcyclohexyl]-2-{[4-(trifluoromethoxy)-phenyl]amino}-1H-benzimidazole-5-carboxylate] | 120
COC(=O)c1ccc2c(c1)nc(Nc1ccc(OC(C)C)cc1)n2[C@@H]1C[C@H](C)CC[C@H]1C(C)C [Example 2-3] | 200
COC(=O)c1cc2nc(Nc3ccc(OC(C)C)cc3)n([C@@H]3C[C@H](C)CC[C@H]3C(C)C)c2cc1C [Example 2-6] | 220
COC(=O)c1cc2nc(Nc3ccc(OC(F)(F)F)cc3)n([C@@H]3C[C@H](C)CC[C@H]3C(C)C)c2cc1OC [Example 2-7] | 100
COC(=O)c1cc2nc(Nc3ccc(C(C)C)cc3)n([C@@H]3C[C@H](C)CC[C@H]3C(C)C)c2cc1OC [Example 2-8] | 130
COC(=O)c1cc2nc(Nc3ccc(OC(C)C)cc3)n([C@@H]3C[C@H](C)CC[C@H]3C(C)C)c2cc1OC [Example 2-9] | 280
COC(=O)Cc1ccc2c(c1)nc(Nc1ccc(OC(F)(F)F)cc1)n2[C@@H]1C[C@H](C)CC[C@H]1C(C)C [Example 2-10] | 120
COC(=O)Cc1ccc2c(c1)nc(Nc1ccc(C(C)C)cc1)n2[C@@H]1C[C@H](C)CC[C@H]1C(C)C [Example 2-11] | 80
COC(=O)Cc1ccc2c(c1)nc(Nc1ccc(OC(C)C)cc1)n2[C@@H]1C[C@H](C)CC[C@H]1C(C)C [Example 2-12] | 300
COC(=O)Cc1cc2nc(Nc3ccc(OC(C)C)cc3)n([C@@H]3C[C@H](C)CC[C@H]3C(C)C)c2cc1C [Example 2-15] | 80
COC(=O)Cc1cc2nc(Nc3ccc(OC(C)C)cc3)n([C@@H]3C[C@H](C)CC[C@H]3C(C)C)c2cc1OC [Example 2-18] | 120
COC(=O)CCc1ccc2c(c1)nc(Nc1ccc(OC(F)(F)F)cc1)n2[C@@H]1C[C@H](C)CC[C@H]1C(C)C [Example 2-19] | 95
COC(=O)CCc1ccc2c(c1)nc(Nc1ccc(C(C)C)cc1)n2[C@@H]1C[C@H](C)CC[C@H]1C(C)C [Example 2-20] | 130
COC(=O)CCc1ccc2c(c1)nc(Nc1ccc(OC(C)C)cc1)n2[C@@H]1C[C@H](C)CC[C@H]1C(C)C [Example 2-21] | 380
COc1cc2c(cc1CC(=O)O)nc(Nc1ccc(OC(C)C)cc1)n2[C@@H]1C[C@H](C)CC[C@H]1C(C)C [Example 2-39] | 70
COC(=O)CCc1cc2nc(Nc3ccc(OC(F)(F)F)cc3)n([C@@H]3C[C@H](C)CC[C@H]3C(C)C)c2cc1OC [Example 2-43, methyl 3-(1-[(1R,2S,5R)-2-isopropyl-5-methylcyclohexyl]-6-methoxy-2-{[4-(tri-fluoromethoxy)phenyl]amino}-1H-benzimidazol-5-yl)propanoate] | 190
COC(=O)CCc1cc2nc(Nc3ccc(OC(C)C)cc3)n([C@@H]3C[C@H](C)CC[C@H]3C(C)C)c2cc1OC [Example 2-44] | 620
COC(=O)CCc1cc2nc(Nc3ccc(C(C)C)cc3)n([C@@H]3C[C@H](C)CC[C@H]3C(C)C)c2cc1OC [Example 2-45] | 180
COc1cc2c(cc1CCC(=O)O)nc(Nc1ccc(OC(C)C)cc1)n2[C@@H]1C[C@H](C)CC[C@H]1C(C)C [Example 2-47] | 2800

Further lines, results first:

IC50 [nM] | SMILES
70 | COC(=O)Cc1cc2nc(Nc3ccc(OC(F)(F)F)cc3)n([C@@H]3C[C@H](C)CC[C@H]3C(C)C)c2cc1OC [Example 2-16]
68 | COC(=O)Cc1cc2nc(Nc3ccc(C(C)C)cc3)n([C@@H]3C[C@H](C)CC[C@H]3C(C)C)c2cc1OC [Example 2-17]
65 | COC(=O)c1ccc2c(c1)nc(Nc1ccc(C(C)C)cc1)n2[C@@H]1C[C@H](C)CC[C@H]1C(C)C [Example 2-2]
45 | COC(=O)Cc1cc2nc(Nc3ccc(OC(F)(F)F)cc3)n([C@@H]3C[C@H](C)CC[C@H]3C(C)C)c2cc1C [Example 2-13]
45 | CC(C)Oc1ccc(Nc2nc3cc(CC(=O)O)ccc3n2[C@@H]2C[C@H](C)CC[C@H]2C(C)C)cc1 [Example 2-33]
40 | COC(=O)c1cc2nc(Nc3ccc(C(C)C)cc3)n([C@@H]3C[C@H](C)CC[C@H]3C(C)C)c2cc1C [Example 2-5]
35 | COC(=O)Cc1cc2nc(Nc3ccc(C(C)C)cc3)n([C@@H]3C[C@H](C)CC[C@H]3C(C)C)c2cc1C [Example 2-14]
30 | Cc1cc2c(cc1CC(=O)O)nc(Nc1ccc(OC(C)C)cc1)n2[C@@H]1C[C@H](C)CC[C@H]1C(C)C [Example 2-36]
23 | COc1cc2c(cc1CC(=O)O)nc(Nc1ccc(OC(F)(F)F)cc1)n2[C@@H]1C[C@H](C)CC[C@H]1C(C)C [Example 2-37]
16 | COc1cc2c(cc1C(=O)O)nc(Nc1ccc(OC(F)(F)F)cc1)n2[C@@H]1C[C@H](C)CC[C@H]1C(C)C [Example 2-28]
15 | Cc1cc2c(cc1C(=O)O)nc(Nc1ccc(OC(C)C)cc1)n2[C@@H]1C[C@H](C)CC[C@H]1C(C)C [Example 2-27]
15 | CC(C)[C@@H]1CC[C@@H](C)C[C@H]1n1c(Nc2ccc(OC(F)(F)F)cc2)nc2cc(CCC(=O)O)ccc21 [Example 2-40]
15 | COc1cc2c(cc1CCC(=O)O)nc(Nc1ccc(OC(F)(F)F)cc1)n2[C@@H]1C[C@H](C)CC[C@H]1C(C)C [Example 2-46, 3-(1-[(1R,2S,5R)-2-isopropyl-5-methylcyclohexyl]-6-methoxy-2-{[4-(trifluoromethoxy)phenyl]amino}-1H-benzimidazol-5-yl)propanoic acid]
13 | CC(C)Oc1ccc(Nc2nc3cc(C(=O)O)ccc3n2[C@@H]2C[C@H](C)CC[C@H]2C(C)C)cc1 [Example 2-24]
13 | COc1cc2c(cc1C(=O)O)nc(Nc1ccc(C(C)C)cc1)n2[C@@H]1C[C@H](C)CC[C@H]1C(C)C [Example 2-29]
12 | COc1cc2c(cc1CC(=O)O)nc(Nc1ccc(C(C)C)cc1)n2[C@@H]1C[C@H](C)CC[C@H]1C(C)C [Example 2-38]
12 | CC(C)c1ccc(Nc2nc3cc(CCC(=O)O)ccc3n2[C@@H]2C[C@H](C)CC[C@H]2C(C)C)cc1 [Example 2-41]
12 | CC(C)Oc1ccc(Nc2nc3cc(CCC(=O)O)ccc3n2[C@@H]2C[C@H](C)CC[C@H]2C(C)C)cc1 [Example 2-42]
11 | CC(C)c1ccc(Nc2nc3cc(CC(=O)O)ccc3n2[C@@H]2C[C@H](C)CC[C@H]2C(C)C)cc1 [Example 2-32]
8.3 | Cc1cc2c(cc1CC(=O)O)nc(Nc1ccc(C(C)C)cc1)n2[C@@H]1C[C@H](C)CC[C@H]1C(C)C [Example 2-35]
8 | Cc1cc2c(cc1C(=O)O)nc(Nc1ccc(OC(F)(F)F)cc1)n2[C@@H]1C[C@H](C)CC[C@H]1C(C)C [Example 2-25]
7.5 | Cc1cc2c(cc1C(=O)O)nc(Nc1ccc(C(C)C)cc1)n2[C@@H]1C[C@H](C)CC[C@H]1C(C)C [Example 2-26]
6.3 | CC(C)c1ccc(Nc2nc3cc(C(=O)O)ccc3n2[C@@H]2C[C@H](C)CC[C@H]2C(C)C)cc1 [Example 2-23]
6.3 | Cc1cc2c(cc1CC(=O)O)nc(Nc1ccc(OC(F)(F)F)cc1)n2[C@@H]1C[C@H](C)CC[C@H]1C(C)C [Example 2-34]
4 | CC(C)[C@@H]1CC[C@@H](C)C[C@H]1n1c(Nc2ccc(OC(F)(F)F)cc2)nc2cc(C(=O)O)ccc21 [Example 2-22, 1-[(1R,2S,5R)-2-isopropyl-5-methylcyclohexyl]-2-{[4-(trifluoromethoxy)phenyl]-amino}-1H-benzimidazole-5-carboxylic acid]

These compounds were tested against Mutant IDH1 (LN229 R132H cells) (Homo sapiens (Human), UniProt O75874, R132H) (assay: Mutant IDH1 cellular assay (2-HG levels in medium of LN229 R132H cells)). Details: 2-HG production in LN229 R132H cells, 24 hours incubation, fluorescence readout.
Format: cell-based
Description: Levels of (2R)-2-hydroxyglutarate (2HG) were measured in medium of a cell line with overexpression of mutated isocitrate dehydrogenase (mIDH) protein. mIDH catalyzes the NADPH-dependent reduction of alpha-ketoglutarate to 2-HG. Cells (LN229 R132H, Mohrenz et al., Apoptosis (2013) 18:1416-1425) were grown in DMEM containing 10% FCS. They were harvested by trypsin and seeded into 96-well plates. Cells were incubated overnight at 37° C. in 5% CO2. The next day test compounds were added to each cell well. The final concentration of DMSO was 0.1% and DMSO controls were included. The plates were then placed in an incubator for 24 hours.
2-HG was measured according to Balss et al. (Acta Neuropathol (2012) 124: 883-891). Briefly, HClO4 was added to each well and the plates were centrifuged. Aliquots are removed and incubated with hydroxyglutarate dehydrogenase (HGDH), diaphorase, NAD+, and resazurin. The conversion of resazurin to resorufin was detected by fluorescence spectroscopy at Ex 540 nm Em 600 nm. The increase in fluorescence is proportional to 2-HG production. IC50 values are determined by interpolation from plots of relative fluorescence vs inhibitor concentration.

Mutant IDH1 (LN229 R132H cells), sequence (O75874 whole entry R132H): as above

IC50 [nM] | SMILES
38 | COc1cc2c(cc1C(=O)O)nc(Nc1ccc(OC(F)(F)F)cc1)n2[C@@H]1C[C@H](C)CC[C@H]1C(C)C [Example 2-28]
40 | COc1cc2c(cc1C(=O)O)nc(Nc1ccc(C(C)C)cc1)n2[C@@H]1C[C@H](C)CC[C@H]1C(C)C [Example 2-29]
84 | COc1cc2c(cc1C(=O)O)nc(Nc1ccc(OC(C)C)cc1)n2[C@@H]1C[C@H](C)CC[C@H]1C(C)C [Example 2-30]
